BindingDB's records for doi:10.1021/jm00362a020 (1983)

Molecular target: Glycolate oxidase (Sus scrofa)
Assay: In vitro inhibition of porcine Glycolate oxidase

SMILES | IC50
CCCCCCCCCc1ccc(C(=O)CC(=O)C(=O)O)cc1 | 600 nM
O=C(C=Cc1ccccc1)CC(=O)C(=O)O | 19000 nM
O=C(O)C(=O)CC(=O)c1ccc(-c2ccc(SCC3(O)COc4ccccc4OC3)cc2)cc1 | 60 nM
O=C(O)C(=O)CC(=O)c1ccc(-c2ccc(SCc3ccccc3)cc2)cc1 | 400 nM
O=C(O)C(=O)CC(=O)c1ccc(-n2c(-c3ccccc3)cc3ccccc32)cc1 | 180 nM
CC1=C(C=CC(=O)CC(=O)C(=O)O)C(C)(C)CCC1 | 1400 nM

The next lines start with the values.

IC50 | SMILES
2100 nM | O=C(O)C(=O)CC(=O)c1ccc(C2CCCc3ccccc32)cc1 (centres undefined)
63 nM | O=C(O)C(=O)CC(=O)c1ccc(-c2ccc(Br)cc2)cc1
160 nM | CSc1ccc(-c2ccc(C(=O)CC(=O)C(=O)O)cc2)cc1
